Key:
[1] = target: T1, aggregated recombinant human-microtubule associated protein Tau (Homo sapiens, UniProt P10636); test: Thiazin-red R displacement fluorescence assay on aggregated Tau; type: binding; conditions: displacement of Thiazin-red R from aggregated Tau; compound 0.3 nM to 10000 nM; 30 min room temperature; Ex 531 nm/Em 595 nm
T1 construct: Recombinant human-microtubule associated protein Tau purified from E. coli is aggregated at a concentration of 5 μM with Arachidonic Acid (100 μM) in Tris 10 mM pH8, 24 h at 37° C

[2] = target: T2, aggregated synthetic Aβ40 (Homo sapiens, UniProt P05067); test: Thiazin-red R displacement fluorescence assay on aggregated A-beta; type: binding; conditions: displacement of Thiazin-red R from aggregated Aβ40; compound 0.3 nM to 10000 nM; 30 min room temperature; Ex 531 nm/Em 595 nm
T2 construct: Synthetic Aβ40 is aggregated at a concentration of 50 μM
T2 sequence (P05067 672-711 limits assumed): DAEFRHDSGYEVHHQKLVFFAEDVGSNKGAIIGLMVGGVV

T1 sequence (P10636 whole entry): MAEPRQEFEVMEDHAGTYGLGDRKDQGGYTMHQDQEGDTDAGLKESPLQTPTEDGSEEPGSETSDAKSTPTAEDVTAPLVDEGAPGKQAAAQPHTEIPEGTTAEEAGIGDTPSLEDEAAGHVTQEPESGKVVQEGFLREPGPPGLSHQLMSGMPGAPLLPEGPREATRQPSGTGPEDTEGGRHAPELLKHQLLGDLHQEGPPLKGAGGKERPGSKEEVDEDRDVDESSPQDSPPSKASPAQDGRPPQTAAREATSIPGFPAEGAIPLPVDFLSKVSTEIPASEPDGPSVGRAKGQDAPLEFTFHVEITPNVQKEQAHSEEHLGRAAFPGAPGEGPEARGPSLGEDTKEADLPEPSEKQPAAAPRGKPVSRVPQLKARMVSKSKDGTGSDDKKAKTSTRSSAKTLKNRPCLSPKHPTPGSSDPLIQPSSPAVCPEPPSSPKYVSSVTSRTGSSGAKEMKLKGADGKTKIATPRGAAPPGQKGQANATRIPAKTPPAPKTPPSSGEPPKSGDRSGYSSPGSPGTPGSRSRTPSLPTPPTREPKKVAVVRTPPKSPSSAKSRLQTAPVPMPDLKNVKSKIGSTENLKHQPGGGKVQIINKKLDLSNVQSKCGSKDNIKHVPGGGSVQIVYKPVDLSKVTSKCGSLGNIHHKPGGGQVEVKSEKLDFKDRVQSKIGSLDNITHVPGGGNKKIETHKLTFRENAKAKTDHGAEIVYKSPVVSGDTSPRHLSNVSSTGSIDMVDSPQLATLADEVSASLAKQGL

| SMILES | IC50 [1] | IC50 [2] |
| --- | --- | --- |
| COc1cc(/C=c2\sc3nc(-c4ccc(C(F)(F)F)c(F)c4)cn3c2=O)cc(Cl)c1O [Example 28, 2-[1-(3-Chloro-4-hydroxy-5-methoxy-phenyl)-meth-(Z)-ylidene]-6-(3-fluoro-4-trifluoromethyl-phenyl)-imidazo[2,1-b]thiazol-3-one] | 23 nM | 1060 nM |
| COc1cc(/C=c2\sc3nc(-c4ccncc4)cn3c2=O)cc(Br)c1O [Example 70, 2-[1-(3-Bromo-4-hydroxy-5-methoxy-phenyl)-meth-(Z)-ylidene]-6-(pyridin-4-yl)-imidazo[2,1-b]thiazol-3-one] | 1.3 nM | 103 nM |
| CCCN(C)C(=O)c1ccc(-c2cn3c(=O)/c(=C/c4cc(Cl)c(O)c(OC)c4)sc3n2)cc1 [Example 128, 4-{2-[1-(3-Chloro-4-hydroxy-5-methoxy-phenyl)-meth-(Z)-ylidene]-3-oxo-2,3-dihydro-imidazo[2,1-b]thiazol-6-yl}-N-methyl-N-propyl-benzamide] | 9 nM | 218 nM |
| COc1cc(/C=c2\sc3nc(-c4cc(C)nc(C)c4)cn3c2=O)cc(Br)c1O [Example 65, 2-[1-(3-Bromo-4-hydroxy-5-methoxy-phenyl)-meth-(Z)-ylidene]-6-(2,6-dimethyl-pyridin-4-yl)-imidazo[2,1-b]thiazol-3-one] | 7 nM | 304 nM |
| COc1cc(/C=c2\sc3nc(-c4ccc(C(=O)O)cc4)cn3c2=O)cc(F)c1O [Example 138, 4-{2-[1-(3-Fluoro-4-hydroxy-5-methoxy-phenyl)-meth-(Z)-ylidene]-3-oxo-2,3-dihydro-imidazo[2,1-b]thiazol-6-yl}-benzoic acid] | 14 nM | 898 nM |
| COc1cc(/C=c2\sc3nc(-c4ccc(C(=O)OCCCF)cc4)cn3c2=O)cc(Cl)c1O [Example 149, 4-{2-[1-(3-Chloro-4-hydroxy-5-methoxy-phenyl)-meth-(Z)-ylidene]-3-oxo-2,3-dihydro-imidazo[2,1-b]thiazol-6-yl}-benzoic acid 3-fluoro-propyl ester] | 2 nM | 168 nM |
| COc1cc(/C=c2\sc3nc(-c4cccc(C(N)=O)c4)cn3c2=O)cc(F)c1O [Example 121, 3-{2-[1-(3-Fluoro-4-hydroxy-5-methoxy-phenyl)-meth-(Z)-ylidene]-3-oxo-2,3-dihydro-imidazo[2,1-b]thiazol-6-yl}-benzamide] | 19 nM | 591 nM |
| COc1cc(/C=c2\sc3nc(-c4cccc(CCl)c4)cn3c2=O)cc(Cl)c1O [Example 67, 2-[1-(3-Chloro-4-hydroxy-5-methoxy-phenyl)-meth-(Z)-ylidene]-6-(3-(chloromethyl)phenyl)-imidazo[2,1-b]thiazol-3-one] | 0.8 nM | 9 nM |
| COc1cc(/C=c2\sc3nc(-c4ccc(C(=O)N5CC(F)C5)cc4)cn3c2=O)cc(Cl)c1O [Example 134, 2-[1-(3-Chloro-4-hydroxy-5-methoxy-phenyl)-meth-(Z)-ylidene]-6-[4-(3-fluoro-azetidine-1-carbonyl)-phenyl]-imidazo[2,1-b]thiazol-3-one] | 2 nM | 133 nM |
| COc1cc(/C=c2\sc3nc(-c4cccc(C)c4)cn3c2=O)cc(Cl)c1O [Example 52, 2-[1-(3-Chloro-4-hydroxy-5-methoxy-phenyl)-meth-(Z)-ylidene]-6-m-tolyl-imidazo[2,1-b]thiazol-3-one] | 7 nM | 1020 nM |
| CCCOc1cc(/C=c2\sc3nc(-c4cncnc4)cn3c2=O)cc(Cl)c1O [Example 130, 2-[1-(3-Chloro-4-hydroxy-5-propoxy-phenyl)-meth-(Z)-ylidene]-6-pyrimidin-5-yl-imidazo[2,1-b]thiazol-3-one] | 67 nM | 1940 nM |
| COc1cc(/C=c2\sc3nc(-c4ccc(Cl)cc4)cn3c2=O)cc(OCCF)c1O [Example 27, 6-(4-Chloro-phenyl)-2-[1-(3-(2-fluoro-ethoxy)-4-hydroxy-5-methoxy-phenyl)-meth-(Z)-ylidene]-imidazo[2,1-b]thiazol-3-one] | 1 nM | 7 nM |
| COc1cc(/C=c2\sc3nc(-c4cccc(N5CCOCC5)c4)cn3c2=O)cc(Cl)c1O [Example 89, 2-[1-(3-Chloro-4-hydroxy-5-methoxy-phenyl)-meth-(Z)-ylidene]-6-(3-morpholinophenyl)-imidazo[2,1-b]thiazol-3-one] | 24 nM | 356 nM |
| COc1cc(/C=c2\sc3nc(-c4ccnc(C)c4)cn3c2=O)ccc1O [Example 12, 2-[1-(4-Hydroxy-3-methoxy-phenyl)-meth-(Z)-ylidene]-6-(2-methyl-pyridin-4-yl)-imidazo[2,1-b]thiazol-3-one] | 79 nM | > 10000 nM |
| COc1cc(/C=c2\sc3nc(-c4cccc(C#N)c4)cn3c2=O)cc(OC(C)C)c1O [Example 51, 3-{2-[1-(4-Hydroxy-3-methoxy-5-isopropoxyphenyl)-meth-(Z)-ylidene]-3-oxo-2,3-dihydro-imidazo[2,1-b]thiazol-6-yl}-benzonitrile] | 275 nM | > 10000 nM |
| COc1cc(/C=c2\sc3nc(-c4c(F)cccc4F)cn3c2=O)cc(Cl)c1O [Example 105, 2-[1-(3-Chloro-4-hydroxy-5-methoxy-phenyl)-meth-(Z)-ylidene]-6-(2,6-difluoro-phenyl)-imidazo[2,1-b]thiazol-3-one] | 13 nM | 5550 nM |

| SMILES | IC50 [1] | IC50 [2] |
| --- | --- | --- |
| COc1cc(/C=c2\sc3nc(-c4cccnc4)cn3c2=O)cc(Cl)c1O [Example 78, 2-[1-(3-Chloro-4-hydroxy-5-methoxy-phenyl)-meth-(Z)-ylidene]-6-(pyridin-3-yl)-imidazo[2,1-b]thiazol-3-one] | 10.4 nM | 700 nM |
| COc1cc(/C=c2\sc3nc(-c4cccc(OC(F)(F)F)c4)cn3c2=O)cc(OC(C)C)c1O [Example 34, 2-[1-(4-Hydroxy-3-methoxy-5-isopropoxy-phenyl)-meth-(Z)-ylidene]-6-(3-trifluoromethoxy-phenyl)-imidazo[2,1-b]thiazol-3-one] | 26 nM | 437 nM |
| COc1cc(/C=c2\sc3nc(-c4ccc(C(F)(F)F)c(F)c4)cn3c2=O)cc(OC)c1O [Example 29] | 11 nM | 43 nM |
| COc1cc(/C=c2\sc3nc(-c4cccc(OC(F)(F)F)c4)cn3c2=O)cc(Br)c1O [Example 37, 2-[1-(3-Bromo-4-hydroxy-5-methoxy-phenyl)-meth-(Z)-ylidene]-6-(3-trifluoromethoxy-phenyl)-imidazo[2,1-b]thiazol-3-one] | 6 nM | 552 nM |
| CCCOc1cc(/C=c2\sc3nc(-c4ccc(-n5cnc(C)c5)nc4)cn3c2=O)cc(Cl)c1O [Example 112, 2-[1-(3-Chloro-4-hydroxy-5-propoxy-phenyl)-meth-(Z)-ylidene]-6-[6-(4-methyl-imidazol-1-yl)-pyridin-3-yl]-imidazo[2,1-b]thiazol-3-one] | 8 nM | 493 nM |
| COc1cc(/C=c2\sc3nc(-c4cccc(N5CCCC5=O)c4)cn3c2=O)cc(Cl)c1O [Example 94, 2-[1-(3-Chloro-4-hydroxy-5-methoxy-phenyl)-meth-(Z)-ylidene]-6-[3-(2-oxo-pyrrolidin-1-yl)-phenyl]-imidazo[2,1-b]thiazol-3-one] | 42 nM | 3890 nM |
| COc1cc(/C=c2\sc3nc(-c4ccc(C(=O)N(C)CCF)cc4)cn3c2=O)cc(F)c1O [Example 146] | 48 nM | 1010 nM |
| CCCOc1cc(/C=c2\sc3nc(-c4cccnc4)cn3c2=O)cc(Cl)c1O [Example 110, 2-[1-(3-Chloro-4-hydroxy-5-propoxy-phenyl)-meth-(Z)-ylidene]-6-pyridin-3-yl-imidazo[2,1-b]thiazol-3-one] | 17 nM | 425 nM |
| COc1cc(/C=c2\sc3nc(-c4ccc(Cl)cc4)cn3c2=O)ccc1O [Example 3, 6-(4-Chloro-phenyl)-2-[1-(4-hydroxy-3-methoxy-phenyl)-meth-(Z)-ylidene]-imidazo[2,1-b]thiazol-3-one] | 49 nM | 215 nM |
| COc1cc(/C=c2\sc3nc(-c4cccc(OC(F)(F)F)c4)cn3c2=O)ccc1O [Example 36, 2-[1-(4-Hydroxy-3-methoxy-phenyl)-meth-(Z)-ylidene]-6-(3-trifluoromethoxy-phenyl)-imidazo[2,1-b]thiazol-3-one] | 401 nM | > 10000 nM |
| CCc1cc(/C=c2\sc3nc(-c4cccc(OC(F)(F)F)c4)cn3c2=O)cc(OC)c1O [Example 40, 2-[1-(3-Ethyl-4-hydroxy-5-methoxy-phenyl)-meth-(Z)-ylidene]-6-(3-trifluoromethoxy-phenyl)-imidazo[2,1-b]thiazol-3-one] | 701 nM | > 10000 nM |
| COc1cc(/C=c2\sc3nc(-c4ccc(OC(F)F)cc4)cn3c2=O)cc(Cl)c1O [Example 88, 2-[1-(3-Chloro-4-hydroxy-5-methoxy-phenyl)-meth-(Z)-ylidene]-6-(4-(difluoromethoxy)phenyl)-imidazo[2,1-b]thiazol-3-one] | 0.6 nM | 14 nM |
| COc1cc(/C=c2\sc3nc(-c4ccc(OCCF)cc4)cn3c2=O)cc(Cl)c1O [Example 79, 2-[1-(3-Chloro-4-hydroxy-5-methoxy-phenyl)-meth-(Z)-ylidene]-6-(4-(2-fluoroethoxyl)phenyl)-imidazo[2,1-b]thiazol-3-one] | 6 nM | 25 nM |
| COc1cc(/C=c2\sc3nc(-c4ccc(NC(C)=O)cc4)cn3c2=O)cc(Cl)c1O [Example 103, N-(4-{2-[1-(3-Chloro-4-hydroxy-5-methoxy-phenyl)-meth-(Z)-ylidene]-3-oxo-2,3-dihydro-imidazo[2,1-b]thiazol-6-yl}-phenyl)-acetamide] | 24 nM | 1160 nM |
| COc1cc(/C=c2\sc3nc(-c4ccc(C(=O)N(C)CCCF)cc4)cn3c2=O)cc(F)c1O [Example 147] | 41 nM | 448 nM |

From patent US20150157739A1, “Imidazo[2,1]thiazol-3-one derivatives” (Hoffmann-La Roche Inc., priority 2012, published 2015)
